Data reported in patent US12509431B2, “1,4-dihydroquinazolinone compounds and uses thereof” (Edgewise Therapeutics, Inc., priority 2022, dated 2025).

Experiments:
Format in all cases: biochemical
[1] = molecular target: T1, Porcine Ventricle myofibrils (left ventricle of Yucatan minipigs) (Sus scrofa, UniProt P79293); test: Myofibril ATPase assay (PK/LDH NADH-coupled), ventricle myofibrils
T1 construct: Myofibrils from porcine cardiac muscle was isolated from the left ventricle of Yucatan minipigs; tissue Exemplar Genetics; host or cells: left ventricle of Yucatan minipigs
T1 sequence (P79293 whole entry): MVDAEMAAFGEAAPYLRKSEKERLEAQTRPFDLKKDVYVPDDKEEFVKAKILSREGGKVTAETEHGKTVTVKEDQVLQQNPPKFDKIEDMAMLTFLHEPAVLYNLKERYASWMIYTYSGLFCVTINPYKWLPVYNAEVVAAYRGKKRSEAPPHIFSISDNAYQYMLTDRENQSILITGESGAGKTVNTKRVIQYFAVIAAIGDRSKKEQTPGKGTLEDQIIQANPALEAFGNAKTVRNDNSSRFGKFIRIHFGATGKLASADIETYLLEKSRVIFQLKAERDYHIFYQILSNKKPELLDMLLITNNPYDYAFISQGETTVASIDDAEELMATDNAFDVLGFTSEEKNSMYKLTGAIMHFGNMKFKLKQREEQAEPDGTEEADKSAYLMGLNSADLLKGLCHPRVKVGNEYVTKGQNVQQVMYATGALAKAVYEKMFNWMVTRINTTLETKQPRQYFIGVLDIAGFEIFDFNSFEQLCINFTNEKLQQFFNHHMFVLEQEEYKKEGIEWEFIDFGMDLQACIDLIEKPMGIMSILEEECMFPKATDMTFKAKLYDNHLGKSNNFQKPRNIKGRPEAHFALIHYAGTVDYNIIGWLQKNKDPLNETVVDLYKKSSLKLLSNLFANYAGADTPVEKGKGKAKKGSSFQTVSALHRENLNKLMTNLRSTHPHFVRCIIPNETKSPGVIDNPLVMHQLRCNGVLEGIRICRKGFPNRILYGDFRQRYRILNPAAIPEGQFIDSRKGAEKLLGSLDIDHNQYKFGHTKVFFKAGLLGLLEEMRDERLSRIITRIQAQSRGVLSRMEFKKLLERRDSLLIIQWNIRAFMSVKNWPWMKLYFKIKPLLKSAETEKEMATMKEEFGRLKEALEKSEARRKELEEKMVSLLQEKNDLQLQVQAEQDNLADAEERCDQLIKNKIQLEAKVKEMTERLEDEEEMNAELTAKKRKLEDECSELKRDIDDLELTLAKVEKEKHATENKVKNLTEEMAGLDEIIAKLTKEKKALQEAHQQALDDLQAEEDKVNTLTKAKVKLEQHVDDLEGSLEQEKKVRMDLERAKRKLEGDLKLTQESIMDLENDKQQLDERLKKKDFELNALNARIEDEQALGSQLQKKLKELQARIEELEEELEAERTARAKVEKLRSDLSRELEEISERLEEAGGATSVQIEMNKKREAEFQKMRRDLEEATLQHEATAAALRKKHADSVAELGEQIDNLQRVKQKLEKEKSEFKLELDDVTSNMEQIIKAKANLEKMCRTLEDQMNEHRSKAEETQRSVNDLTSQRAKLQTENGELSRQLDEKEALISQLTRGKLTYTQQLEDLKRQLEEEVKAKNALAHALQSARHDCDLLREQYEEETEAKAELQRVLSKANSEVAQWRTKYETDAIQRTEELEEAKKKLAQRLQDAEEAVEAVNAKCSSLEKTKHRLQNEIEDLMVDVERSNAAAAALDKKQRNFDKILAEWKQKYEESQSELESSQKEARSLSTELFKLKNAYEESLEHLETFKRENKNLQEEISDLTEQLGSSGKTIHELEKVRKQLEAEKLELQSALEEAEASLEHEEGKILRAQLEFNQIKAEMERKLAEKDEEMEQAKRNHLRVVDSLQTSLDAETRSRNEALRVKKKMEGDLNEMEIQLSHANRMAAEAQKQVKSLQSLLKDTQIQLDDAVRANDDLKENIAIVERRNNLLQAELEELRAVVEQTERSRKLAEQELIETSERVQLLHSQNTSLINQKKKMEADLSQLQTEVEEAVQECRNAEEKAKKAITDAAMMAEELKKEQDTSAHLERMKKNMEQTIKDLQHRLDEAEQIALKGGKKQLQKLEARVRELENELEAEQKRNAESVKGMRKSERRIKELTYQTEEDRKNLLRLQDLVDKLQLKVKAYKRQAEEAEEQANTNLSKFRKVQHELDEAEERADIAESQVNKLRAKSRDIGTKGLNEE
In short: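 NADH depletion (A340) coupled through pyruvate kinase/lactate dehydrogenase reports ATPase rate of porcine left-ventricle myofibrils over 75 min kinetic reads. Regression slopes, vehicle-normalized, fitted by 4-parameter logistic give EC25 and, where available, EC50.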

[2] = test system: Porcine Atria myofibrils; test: Myofibril ATPase assay (PK/LDH NADH-coupled), atria myofibrils
In short: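 Values are EC25% (and, for inhibitors, EC50%) from 4-parameter logistic fits of activity normalized to vehicle wells. Rates came from linear regression of 340 nm kinetic reads (every 1.5-2 min, 75 min) of NADH-coupled ATP turnover by porcine atria myofibrils.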

[3] = test system: Rabbit Skeletal myofibrils (rabbit psoas muscle); test: Myofibril ATPase assay (PK/LDH NADH-coupled), skeletal myofibrils
In short: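 ATPase rate taken as linear-regression slope of A340 (NADH depletion through PK/LDH coupling) over a 75 min kinetic read, with psoas-derived rabbit skeletal myofibrils at pH 7.0. Four-parameter fits of vehicle-normalized activity give EC25 and, where reached, EC50.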

SMILES	Porcine Ventricle IC25 ([1]; Table 8) [nM]	Porcine Atria IC25 ([2]; Table 8) [nM]	Rabbit Psoas IC25 ([3]; Table 8) [nM]	Porcine Ventricle IC25 ([1]; Table 7) [nM]	Porcine Atria IC25 ([2]; Table 7) [nM]	Rabbit Psoas IC25 ([3]; Table 7) [nM]
C[C@@H](NC(=O)CN1C(=O)Nc2ccc(F)c(F)c2C12CC2)c1cnc(C#N)cn1 [Compound B314]	500	40	120	–	–	–
C[C@H](NC(=O)CN1C(=O)Nc2cccnc2[C@H]1C)c1ccc(F)cc1F [Compound N77, N—((S)-1-(2,4-difluorophenyl)ethyl)-2-((R)-4-methyl-2-oxo-1,4-dihydropyrido[3,2-d]pyrimidin-3(2H)-yl)acetamide]	–	–	–	24080	2110	2441
Cc1cc(C(C)NC(=O)CN2Cc3c(ccc(F)c3F)NC2=O)ncc1F (single isomer, unassigned) [Compound B69]	298.7	610	3174	–	–	–
N#Cc1ccc([C@H](CO)NC(=O)CN2C(=O)Nc3cccnc3C23CC3)c(F)c1 [Compound N37]	–	–	–	4582	200	59.9
C[C@@H](NC(=O)CN1Cc2c(ccc(F)c2F)NC1=O)c1nnc(-c2ccccc2F)s1 [Compound B95]	100000	1560	100000	–	–	–
C[C@H](NC(=O)CN1Cc2ccccc2NC1=O)c1ccc(F)cc1F [Compound B249, N-[(1S)-1-(2,4-difluorophenyl)ethyl]-2-(2-oxo-1,4-dihydroquinazolin-3-yl)acetamide]	658.9	70	27.66	–	–	–
CCc1cc(F)cnc1[C@H](C)NC(=O)CN1Cc2c(ccc(F)c2F)NC1=O [Compound B15]	100000	100000	100000	–	–	–
C[C@@H](NC(=O)CN1Cc2cc(C#N)ccc2NC1=O)c1ncc(F)cc1F [Compound B196]	100000	100000	100000	–	–	–
N#Cc1nccc2c1CN(CC(=O)N[C@H](CO)c1ccc(F)cc1F)C(=O)N2 [Compound N40]	–	–	–	100000	87450	4177
Cc1cccc2c1C1(CC1)N(CC(=O)N[C@@H]1COc3cc(C#N)cc(F)c31)C(=O)N2 [Compound B312]	180	100	50	–	–	–
C[C@@H](NC(=O)CN1Cc2cc(F)ccc2NC1=O)c1ccc(C#N)cc1F [Compound B205]	16290	2070	6054	–	–	–
C[C@H](NC(=O)CN1C(=O)Nc2ccc(F)cc2[C@H]1C(F)(F)F)c1ccc(F)cc1F [Compound B235]	100000	1150	100000	–	–	–
N#Cc1cnc2c(c1)CC[C@H]2NC(=O)CN1C(=O)Nc2cccnc2C12CC2 [Compound N1]	–	–	–	100000	70940	100000
C[C@H](NC(=O)[C@@H](C)N1Cc2nc(F)ccc2NC1=O)c1ccc(F)cc1F [Compound N111]	–	–	–	6670	80	102.7
C[C@@H](NC(=O)CN1Cc2c(F)cccc2NC1=O)c1ccc(C#N)cc1F [Compound B113]	233	160	90.89	–	–	–
